The text below walks through data of patent US12576073B2, “Antiarrhythmic formulation” (InCarda Therapeutics, Inc., priority 2019, dated 2026).

The nature of data set [1]: Solubility comparison of different flecainide salts in 0.1M acid media. The following applies: for pH: Media (0.1M).
Data set [2] can be described thus: physchem. Conditions: aqueous buffer.
A short description of data set [3]: physchem. The following applies: thermodynamic from solid. From the text: The suspension was then magnetic stirred (1000 r/min) at RT for 24 hrs or 48 hrs.
A short description of data set [4]: physchem. The data set is classed as physicochemical. Conditions: Solubility (mg/mL).
The nature of data set [5]: Viscosity and complexation efficiency of flecainide acetate-HPβCD solutions. The data set is classed as physicochemical. The following applies: solutions adjusted to pH 5.2 with NaOH. The source says:
In this example and the following examples, the (HP)-β-cyclodextrin used is “Cavitron W7 HP7 PHARMA”. The manufacturer (Ashland) specifies: <1.5% beta cyclodextrin (our batch had 1%) and molar substitution is between 0.86 and 1.14 (our batch had 1.05). From the manufacturer's brochure, the typical degree of substitution is 6.0 to 8.0 with an approximate average MW of 1520.
Beyond this concentration, the aerosol output rate can diminish slightly.

Data set [6] in a line: physchem.
Data set [7] can be described thus: Solubility of flecainide acetate in binary, ternary and quaternary acid mixtures. The following applies: acid mixture (acetic/nitric/sulfuric acid), 25 °C, aqueous buffer, thermodynamic from solid.
A short description of data set [8]: FLE-002 (INSTANT) study: plasma levels of flecainide (Cmax). The data set is classed as in vivo. Conditions: human, inhaled, oral inhalation.
A further data set relates to Beagle dogs. In words: 14-day repeat dose face mask inhalation toxicity study in dogs. Conditions: dog, in vivo. From the text: This example describes a 14-day repeated-dose toxicity study via face mask inhalation with 14 day recovery in dogs.
In addition to the aerosol drug concentration, the aerosol particle size distribution was also characterized. The particle size average MMAD and GSD for the Low-, Mid-, and High-dose groups were 2.38 (1.79), 2.03 (1.87) and 2.08 (1.79) microns, respectively, and 1.74 (1.88) microns for vehicle control group. […] Chamber oxygen levels were monitored throughout the exposures. Main study animals were sacrificed on Day 15. Recovery animals were sacrificed on Day 29 following a 14-day recovery period. Endpoints included clinical observations, body weights, ophthalmology, clinical pathology, urinalysis, gross pathology, histopathology, and bioanalytical and toxicokinetic analyses.

Data set [9] is described as follows: Solubility of flecainide in D/L-lactic acid media. The data set is classed as physicochemical. Conditions: thermodynamic from solid. How it is done: D-lactic acid, L-lactic acid, or DL-lactic acid was slowly added portionwise to the suspension while stirring. The system was left to equilibrate for 30 minutes, and the pH was determined. The pH was then adjusted to 5.2-6 with NaOH if necessary. After addition of NaOH, the system was again left to equilibrate for 30 minutes before pH was measured. After the desired pH was achieved, the suspension was stirred (1000 rpm) at ambient temperature for 48 hours. At 24 hours and 48 hours of stirring, samples of each solution were centrifuged at 10000 rpm for 2 minutes and filtered with a 0.45 μm membrane to obtain supernatant for pH determination and HPLC analysis. Solids from each sample were also characterized by X-ray powder diffraction (XRPD) analysis.

The test system of data set [10] is patients with recent onset of symptomatic paroxysmal atrial fibrillation. The following applies: inhaled, Total of all dose groups (N = 99).
The test system is the same in data set [11]. In words: FLE-002 (INSTANT) Phase 2 study: conversion of AF to sinus rhythm. The data set is classed as in vivo, human. The following applies: within 60 minutes of dosing, evaluable patients. From the text: Patient eligibility for this study is generally consistent with eligibility for IV flecainide. 18 years and older, both male and female sexes are eligible for this study. Inclusion and exclusion criteria are summarized in TABLE 18A and TABLE 18B, respectively.
The study consists of 2 parts: Part A and Part B. Part A (dose finding) evaluates the feasibility of administration of IH Flec. Part B will confirm the dose and will include a pilot sub-study to simulate a patient led scenario with medical supervision.
Part A study. […] IH Flec formulations tested in this study include the ones listed in TABLE 19 (*, “CD” denotes a cyclodextrin-based formulation including 10% (w/v) hydroxypropyl β-cyclodextrin, 90 mM acetic acid buffer, and having a pH of 5.2; **, “iCD-SAC” denotes a cyclodextrin-based formulation including 20% β(w/v) hydroxypropyl β-cyclodextrin, 5 mM acetic acid, and 750 μM saccharin, and having a pH of 5.9).
In this study, for inhalation delivery of flecainide, the estimated total lung doses (eTLDs) were calculated to account for losses of flecainide in the inhalation device and losses of flecainide in subjects' mouth and throat. eTLD was thereby used to denote the dose that actually reached the lungs of the subjects. By design, in all nebulizers there can be a residual volume or mass of drug solution that stays in the nebulizer, and there can also be a percentage of the aerosol caught by subject's throat and mouth. For instance, in this study, it was estimated that 30% of the aerosol was lost in subject's throat and mouth. Therefore the eTLD would be: eTLD=(100−30)%*amount of aerosolized drug that left nebulizer=70%*(amount of drug placed in nebulizer−amount of drug staying in nebulizer).
The AeroEclipse®II BAN inhaler was used for nebulization and inhalation of the exemplary flecainide formulations. It is available as an approved device in several countries across the world including European countries, USA, and Canada. […]

The test system is the same in data set [12]. In words: FLE-002 (INSTANT) study: QRS interval from 12-lead ECG. The following applies: change from baseline. The data set is classed as in vivo, human.

In brackets after ≈: the same amount, converted by molar mass. Structures can show the parent of a compound that is named as a salt. Where two headings read alike, the source gives them in different places.

For the molecule `O=C(NCC1CCCCN1)c1cc(OCC(F)(F)F)ccc1OCC(F)(F)F` (stereo not shown) [Hydrochloric Acid, flecainide hydrochloride], the pH in data set [1] (hydrochloride) is listed as 5.0. Also, in “physchem [2]” (Concentration (mg/mL) Freebase), the solubility came out at 5.34 mg/mL.
Regarding `O=C(NCC1CCCCN1)c1cc(OCC(F)(F)F)ccc1OCC(F)(F)F` (stereo not shown) [flecainide acetate], the solubility at 48 h in “physchem [3]” (aqueous with cosolvent or surfactant or cyclodextrin, 48 hrs Flecainide Acetate Solubility) is 110 mg/mL; in “physchem [3]” (aqueous with cosolvent or surfactant or cyclodextrin, solubility (48 hrs), calculated as freebase), 105 mg/mL; in the data set “physchem [3]” (water, 48 hrs Flecainide Acetate Solubility), 65.5 mg/mL. Besides, the solubility at 24 h in “physchem [3]” (aqueous with cosolvent or surfactant or cyclodextrin, maximum solubility, calculated as freebase) is 125 mg/mL. The solubility is approximately 60 mg/mL in the data set “physchem [3]” (water, solubility of flecainide acetate water solution); 55 mg/mL in “physchem [4]” (pH 5.3, aqueous with cosolvent or surfactant or cyclodextrin); 69.7 mg/mL in “physchem [4]” (pH 5.5, aqueous with cosolvent or surfactant or cyclodextrin); 136 mg/mL in “physchem [6]” (HPβCD solution with acetic acid, pH 4.9, aqueous with cosolvent or surfactant or cyclodextrin); 135 mg/mL in the data set “physchem [6]” (HPβCD solution with acetic acid, pH 5.1, aqueous with cosolvent or surfactant or cyclodextrin); 135 mg/mL in “physchem [6]” (HPβCD solution with acetic acid, pH 5.2, aqueous with cosolvent or surfactant or cyclodextrin). Moreover, the solubility in “physchem [6]” (HPβCD solution with acetic acid, pH 5.5, aqueous with cosolvent or surfactant or cyclodextrin) came out at 131 mg/mL; in the data set “physchem [6]” (HPβCD solution without acetic acid, pH 6.3, aqueous with cosolvent or surfactant or cyclodextrin) it was 125 mg/mL; in the data set “physchem [2]”, 64 mg/mL; in data set [7], 82.4 mg/mL. Moreover, the “HPβCD molecules complexed with flecainide acetate” value in data set [5] stood at 80%. For the same molecule, the pH in [1] is 4.6. The “effect of addition of sodium chloride (e.g. saline) to the formulation” value in data set [1] (XRPD confirmed form conversion) was “precipitation and loss of solubility”.
For `O=C(NCC1CCCCN1)c1cc(OCC(F)(F)F)ccc1OCC(F)(F)F` (stereo not shown) [flecainide], the Cmax in [8] (30 mg, 30 mg eTLD, read-out: Cmax (mean ± SD)) turned out to be 127 ± 99.5 ng/mL. The Cmax in [8] (30 mg, 30 mg eTLD, read-out: Cmax Range) lay within 5.8 to 69 ng/mL. For the same molecule, in data set [8] (60 mg, 60 mg eTLD, read-out: Cmax (mean ± SD)), the Cmax was found to be 199 ± 222 ng/mL. Besides, in data set [8] (60 mg, 60 mg eTLD, read-out: Cmax Range), the Cmax fell in the range of 6.6 to 817 ng/mL. Also, the Cmax in data set [8] (90 mg, 90 mg eTLD, read-out: Cmax (mean ± SD)) was 248 ± 207 ng/mL. Also, the Cmax in [8] (90 mg, 90 mg eTLD, read-out: Cmax Range) lay within 17 to 834 ng/mL. Besides, the “clinical observation associated with exposure” value with Beagle dogs is listed as “labored respiration during or immediately post exposure”. The molecule further registered a solubility at 24 h in [9] (20% w/v HPβCD in water with D-lactic acid, aqueous with cosolvent or surfactant or cyclodextrin, 20% w/v HPβCD, D-lactic acid, pH 5.8) of 84.8 mg/mL (≈ 205 mM). Also, the concentration in solution in data set [9] (20% w/v HPβCD in water with D-lactic acid, aqueous with cosolvent or surfactant or cyclodextrin, 20% w/v HPβCD, D-lactic acid, pH 5.5) (solubility at 48 h) was 88.4 mg/mL (≈ 213 mM). Moreover, in data set [9] (20% w/v HPβCD in water with L-lactic acid, aqueous with cosolvent or surfactant or cyclodextrin, 20% w/v HPβCD, L-lactic acid, pH 6.3), the concentration in solution (solubility at 24 h) was 87.6 mg/mL (≈ 211 mM). In data set [9] (20% w/v HPβCD in water with L-lactic acid, aqueous with cosolvent or surfactant or cyclodextrin, 20% w/v HPβCD, L-lactic acid, pH 6), this molecule yielded a solubility at 48 h of 89.3 mg/mL (≈ 216 mM). Moreover, the solubility at 24 h in data set [9] (HPβCD solution with DL-lactic acid, aqueous with cosolvent or surfactant or cyclodextrin, 20% w/v HPβCD, DL-lactic acid, pH 6.5) is 72.4 mg/mL (≈ 175 mM). In data set [9] (pure water with D-lactic acid, aqueous buffer, no excipient (pure water), D-lactic acid, pH 5.1), this molecule gave a solubility at 24 h of 90.1 mg/mL (≈ 217 mM). The amount in solution in data set [9] (pure water with D-lactic acid, aqueous buffer, no excipient (pure water), D-lactic acid, pH 5.4) (solubility at 48 h) came to 91 mg/mL (≈ 220 mM). The molecule further returned a solubility at 24 h in data set [9] (pure water with DL-lactic acid, aqueous buffer, no excipient (pure water), DL-lactic acid, pH 6.1) of 76.3 mg/mL (≈ 184 mM). The amount in solution in data set [9] (pure water with DL-lactic acid, aqueous buffer, no excipient (pure water), DL-lactic acid, pH 6) (solubility at 48 h) came to 73.4 mg/mL (≈ 177 mM). The solubility at 24 h in [9] (pure water with L-lactic acid, aqueous buffer, no excipient (pure water), L-lactic acid, pH 5.6) turned out to be 96.6 mg/mL (≈ 233 mM). In addition, the solubility at 48 h in [9] (pure water with L-lactic acid, aqueous buffer, no excipient (pure water), L-lactic acid, pH 5.1) was determined as 97.8 mg/mL (≈ 236 mM). For the same molecule, in data set [10], the “Adverse events: Cough” value was 51 (52) n (%), the “Adverse events: Dizziness” value is 5 (5) n (%), the “Adverse events: Dysphagia” value is given as 9 (9) n (%) and the “Adverse events: Dyspnea” value was 6 (6) n (%). Further, in [10], the “Adverse events: Gastrointestinal disorders” value is 23 (23) n (%), the “Adverse events: Hypotension” value is on record as 7 (7) n (%), the “Adverse events: Nervous system disorders” value was 7 (7) n (%) and the “Adverse events: Oropharyngeal pain” value was 14 (14) n (%). Moreover, in [10], the “Adverse events: Respiratory, thoracic and mediastinal disorders” value was 60 (61) n (%); the “Adverse events: Salivary hypersecretion” value was 8 (8) n (%); the “Adverse events: Throat irritation” value was 12 (12) n (%); the “Adverse events: Vascular disorders” value is on record as 10 (10) n (%). In addition, in data set [10], the “Patients with at least one TEAE” value was 80 (81) n (%); the “Patients with at least one TEAE, Moderate or Severe” value is 35 (35) n (%); the “Patients with at least one TEAE, Severe” value is on record as 2 (2) n (%); the “Patients with at least one TEAE, Study-drug Related” value is listed as 74 (75) n (%). In data set [10], the “Patients with at least one TESAE” value is recorded as 7 (7) n (%); the “Patients with at least one TESAE, Moderate or Severe” value is recorded as 6 (6) n (%); the “Patients with at least one TESAE, Severe” value is reported as 2 (2) n (%); the “Patients with at least one TESAE, Study-drug Related” value is listed as 4 (4) n (%). The “Conversion Rate (AF to SR)” value in data set [11] (30 mg eTLD) is on record as 1/10 (10%). In data set [11] (60 mg eTLD), the “Conversion Rate (AF to SR)” value was 7/20 (35%). Further, the “Conversion Rate (AF to SR)” value in [11] (90 mg eTLD) was 7/21 (33%). The same molecule had a ΔQRSmax in data set [12] (30 mg eTLD) of 5.5 ± 13.1 ms. In [12] (60 mg eTLD), this molecule registered a ΔQRSmax of 4.2 ± 4.6 ms. The molecule also registered a ΔQRSmax in [12] (90 mg eTLD) of 4.1 ± 3.2 ms.
For the molecule flecainide nitrate [Nitric Acid], the pH in data set [1] was determined as 4.0.
